Data reported in PMC7395068, “The evolution of strategies to minimise the risk of human drug-induced liver injury (DILI) in drug discovery and development” (Archives of Toxicology, 2020).
Read-outs that look alike come from different tables or passages of the source.

Legend:
[1] = Plasma free fraction (fu) and unbound Cmax (Cmax,u); assay type: in vitro ADME, human; conditions: unbound plasma Cmax
[2] = system: PHH liver spheroid; design: method as in Foster et al. 2019; conditions: liver-chip of comparable sensitivity, ref Foster et al. 2019; cited from earlier work
[3] = system: HepG2; design: method as in Albrecht 2019; conditions: In vitro Assay; ref Albrecht 2019; cited from earlier work
[4] = cited from earlier work
[5] = system: HepG2 cells; conditions: cited from earlier work
[6] = system: HepG2 cells; conditions: cited from earlier work; remark: listed apart in the source
[7] = system: HepG2 cells; conditions: cited from earlier work; remark: listed apart in the source
[8] = system: PHH; conditions: cited from earlier work
[9] = system: hLiMTs; conditions: cited from earlier work
[10] = system: PHH spheroids; conditions: In vitro Assay; ref Vorrink 2018; cited from earlier work
[11] = system: HepG2 C3A spheroid, BSEP, Glu/Gal in HepG2 cells, bioactivation; conditions: cited from earlier work
[12] = cited from earlier work; remark: listed apart in the source
[13] = plasma free fraction; cited from earlier work
[14] = cited from earlier work; remark: listed apart in the source
[15] = system: PHH; conditions: In vitro Assay; ref Albrecht 2019; cited from earlier work
[16] = system: HepaRG cells; conditions: HepaRG cells, BMCs in relation to 10 × human Cmax.tot; ref National Toxicology Program; cited from earlier work
[17] = system: THLE-Null and THLE-3A4 cells; conditions: In vitro Assay; ref Gustafsson 2014; cited from earlier work
[18] = system: isolated mouse liver mitochondria; conditions: In vitro Assay; ref Porceddu 2012; cited from earlier work
[19] = system: rBsep; conditions: In vitro Assay; ref Dawson 2012; cited from earlier work
[20] = system: hLiMTs; assay: Combined HCI (HCS) and cellular ATP 3D assay in hLiMTs; conditions: for AC50 / minimal effective concentration: Homo sapiens
[21] = system: HepaRG spheroids; assay: Combined HCI (HCS) and cellular ATP 3D assay in HepaRG spheroids; conditions: for AC50 / minimal effective concentration: Homo sapiens
[22] = In vitro Assay, ref Proctor 2017
[23] = Microtissue model structural based (HCI), combined HCS and ATP, MEC < 25 × Cmax.tot cut-off

- Human plasma Cmax,u [1]: 139.840 µM
- hLiMTs <25x Avg Cmax ATP ([20]; hLiMTs, ATP endpoint, cut-off <25x Avg Cmax): +ve
- hLiMTs <100x Avg Cmaxu ATP ([20]; hLiMTs, ATP endpoint, cut-off <100x Avg Cmaxu): +ve (<100x Avg Cmaxu)
- hLiMTs <25x Avg Cmax HCS ([20]; hLiMTs, HCS endpoints, cut-off <25x Avg Cmax): +ve
- hLiMTs <100x Avg Cmaxu HCS ([20]; hLiMTs, HCS endpoints, cut-off <100x Avg Cmaxu): +ve (<100x Avg Cmaxu)
- hLiMTs <25x Avg Cmax All ([20]; hLiMTs, all endpoints (ATP and HCS), cut-off <25x Avg Cmax): +ve
- hLiMTs Cmax max All ([20]; hLiMTs, all endpoints, Cmax max used): +ve
- hLiMTs Cmax min All ([20]; hLiMTs, all endpoints, Cmax min used): +ve
- hLiMTs <10 uM All ([20]; hLiMTs, all endpoints, cut-off <10 uM): -ve
- hLiMTs <100x Avg Cmaxu All ([20]; hLiMTs, all endpoints, cut-off <100x Avg Cmaxu): +ve (<100x Avg Cmaxu)
- HepaRG <25x Avg Cmax ATP ([21]; HepaRG, ATP endpoint, cut-off <25x Avg Cmax): +ve
- HepaRG <100x Avg Cmaxu ATP ([21]; HepaRG, ATP endpoint, cut-off <100x Avg Cmaxu): +ve (<100x Avg Cmaxu)
- HepaRG <25x Avg Cmax HCS ([21]; HepaRG, HCS endpoints, cut-off <25x Avg Cmax): +ve
- HepaRG <100x Avg Cmaxu HCS ([21]; HepaRG, HCS endpoints, cut-off <100x Avg Cmaxu): +ve (<100x Avg Cmaxu)
- HepaRG <25x Avg Cmax All ([21]; HepaRG, all endpoints (ATP and HCS), cut-off <25x Avg Cmax): +ve
- HepaRG Cmax max All ([21]; HepaRG, all endpoints, Cmax max used): +ve
- HepaRG Cmax min All ([21]; HepaRG, all endpoints, Cmax min used): +ve
- HepaRG <10 uM All ([21]; HepaRG, all endpoints, cut-off <10 uM): -ve
- HepaRG <100x Avg Cmaxu All ([21]; HepaRG, all endpoints, cut-off <100x Avg Cmaxu): +ve (<100x Avg Cmaxu)
SMILES: CC(=O)Nc1ccc(O)cc1 [acetaminophen]
- detection in 3D microtissues [2]: detected
- Cytotoxicity HepG2 48 hrs [3]: +VE
- DILI severity category (Chen et al. [2016]) ([4]; LTKB DILIrank category, ref Chen et al. 2016): Most
- DILI severity category ([4]; human DILI severity, ref Chen et al.): Most
- DILI +VE (5-8), DILI -VE (-4) ([4]; ref Chen 2016): +VE
- DILI severity category ([4]; ref Chen 2016): vMost-DILI-Concern
- Structural based (HCI) ([5]; In vitro Assay, ref O'Brien 2006): +VE
- DILI in vitro assay prediction, O'Brien (2006) ([5]; Structural based (HCI), HepG2, ref O'Brien et al. 2006): +VE (lowest HCI endpoint IC50 (or in the absence of dose–response < 100 µM) < 30 × total human plasma exposure levels (Cmax.tot))
- Structural based (HCI) ([6]; In vitro Assay, ref Persson 2013): -VE
- DILI in vitro assay prediction, Persson (2013) ([6]; Structural based (HCI), HepG2, ref Persson et al. 2013): -VE
- Structural based (HCI) ([7]; In vitro Assay, ref Tolosa 2012): +VE
- DILI in vitro assay prediction, Tolosa (2012) ([7]; Structural based (HCI), HepG2, ref Tolosa et al. 2012): +VE
- PHH/100uM, Proctor (2017) ([8]; 2D PHH, ATP, IC50 threshold 100 µM, ref Proctor et al. 2017): -VE
- PHH ATP <100uM [8, 22]: +VE (IC50 threshold of 100 µM)
- hLiMTs ATP <100uM [9, 22]: -VE
- hLiMTs/100uM, Proctor (2017) ([9]; hLiMTs, ATP, IC50 threshold 100 µM, ref Proctor et al. 2017): -VE
- hLiMTs ATP <20 x Cmax [10]: +VE (IC20 < 20 × Cmax.tot cut-off)
- Bayesian Machine Learning DILI prediction, Williams (2019) ([11]; Bayesian modeling, ref Williams et al. 2019): +VE
- Bayesian Machine Learning ([11]; In vitro Assay, ref Williams 2019): +VE
- Cmax ([12]; read-out: Cmax.tot, value used by Albrecht, ref Albrecht et al. 2019): 109 µM
- Cmax ([12]; read-out: Human plasma Cmax, total plasma Cmax.tot, median of 9 literature references): 152 µM
- fu [13]: 0.920
- Assigned DILI category ([14]; Chen et al. 2016 or literature alignment, ref Chen et al. 2016): 3
- In vivo DILI ([14]; […]): +VE
- In vivo DILI ([14]; ref Albrecht 2019): +VE
- In vivo DILI ([14]; ref Dawson 2012): +VE
- In vivo DILI ([14]; ref Garside 2014): +VE
- In vivo DILI ([14]; ref Gustafsson 2014): +VE
- In vivo DILI ([14]; ref O'Brien 2006): +VE
- In vivo DILI ([14]; ref Persson 2013): +VE
- In vivo DILI ([14]; ref Porceddu 2012): +VE
- In vivo DILI ([14]; ref Proctor 2017): +VE
- In vivo DILI ([14]; ref Schadt 2015): +VE
- In vivo DILI ([14]; ref Tolosa 2012): +VE
- In vivo DILI ([14]; ref Vorrink 2018): +VE
- In vivo DILI ([14]; ref Williams 2019): +VE
- In vivo DILI ([14]; ref Xu 2008): +VE
- Cytotoxicity PHH 48 hrs [15]: +VE
- DILI identification by high-throughput transcriptomics [16]: identified
- THLE-Null [17]: -VE
- in vitro data EC2<=1x Cmax [18]: +VE
- in vitro data EC20<=2uM [18]: -VE
- Inhibition of rBsep cutoff<1& cmax u>.2 [19]: -VE
- Inhibition of rBsep cutoff<3 [19]: -VE
- AC50 ([20]; read-out: ATP endpoint AC50): 1240 µM
- minimal effective concentration ([20]; read-out: ATP endpoint MEC): 292 µM
- AC50 ([20]; read-out: HCS endpoint AC50): 4340 µM
- minimal effective concentration ([20]; read-out: HCS endpoint MEC): 456 µM
- DILI prediction hLiMTs (HCS-MEC) [20, 23]: +VE (MEC < 25 × Cmax.tot cut-off)
- AC50 ([21]; HepaRG, read-out: ATP endpoint AC50): 760 µM
- minimal effective concentration ([21]; HepaRG, read-out: ATP endpoint MEC): 187 µM
- AC50 ([21]; HepaRG, read-out: HCS endpoint AC50): 3100 µM
- minimal effective concentration ([21]; HepaRG, read-out: HCS endpoint MEC): 656 µM
- DILI prediction HepaRG spheroids (HCS-MEC) [21, 23]: +VE (MEC < 25 × Cmax.tot cut-off)
